≈ marks a conversion by molar mass, not a printed value. Like-named read-outs stand apart in the source and are kept apart here. Ends that are not written are not given here.
How the values were obtained:
Mtb H37Rv = experiment: In vitro antitubercular effect, broth dilution MIC; assay type: cell-based; conditions: Mycobacterium tuberculosis, 672 h, extracellular Mtb H37Rv, Sula semisynthetic medium pH 6.5, 37°C, 28 days, repeated at least two times
[1] = system: Mtb H37Rv-infected MonoMac-6 human monocytes; experiment: Intracellular killing of Mycobacterium tuberculosis; assay type: cell-based
[2] = system: Mycobacterium tuberculosis H37Rv; experiment: Slow progressing murine TB model (i.p. infection), CFU in organs; assay type: in vivo, BALB/c female mice; conditions: BALB/c mice, INH 20 mg/kg bw per os, twice a week for 5 weeks, 1 week after 10th treatment
[3] = Analytical RP-HPLC retention time (correlates with overall hydrophobicity); assay type: physicochemical; design: Rt (retention time): unit not given here; conditions: chromatographic measure of hydrophobicity; Waters Acquity UPLC BEH C18 (1.7 µm, 150 × 2.1 mm), flow rate 0.3 ml/min, gradient 2% B 1 min, 2%–100% B 16 min; single peak or first of two 5(6)-Cf isomer peaks
Procedure: Purified peptides were analyzed by LC-MS using a Thermo Scientific Q Exactive Focus Hybrid Quadrupole-Orbitrap Mass Spectrometer. For the separation, a Waters Acquity UPLC BEH C18 (1.7 µm, 150 × 2.1 mm) column was used with a flow rate of 0.3 ml/min.
For INH conjugation, representative cell-penetrating (CPP) and antimicrobial peptides (AMP) were chosen. These cationic, amphiphilic peptides are favored in the transportation of various cargos due to their high internalization rate. The used peptide series contains well-known CPPs such as penetratin, transportan, and Tat, frequently studied AMPs such as magainin and buforin, and designed analogs such as Dhvar4, Crot(1-9,38-42), and CM15. Also, a receptor-binding tuftsin analog (OT20), which was reported as a macrophage-targeting peptide, was also applied. […] Mass spectra and RP-HPLC chromatograms are available at https://figshare.com/s/48a023a25068f7658adf, DOI: 10.6084/m9.figshare.16644901. […] To study the internalization rate and intracellular localization, fluorescently labeled analogs were also synthesized. Note that the retention time of Cf-peptide are somewhat higher than unlabeled analogs, and in some cases, two peaks were detected due to the isomeric distribution of 5(6)-Cf molecule.

[4] = system: CALU-1 monolayer / EBC-1 cells; assay type: in vitro ADME, human; conditions: Transwell, 0.4 µm polycarbonate, Cf-peptide apical 10 and 20 µM, 45 min, apical to basolateral; EBC-1 fluorescence read-out
Procedure: EBC-1 lung squamous carcinoma and CALU-1 human lung epidermoid carcinoma were seeded on 24-well plates with Transwell inserts (TW) [Nunc, Sigma polycarbonate microporous membrane, 0.4 µm pore size (growth area 0.412 cm^2)]. Before use, TW inserts were incubated with ICM. On day 1, 300 μl of CALU-1 suspension in complete DMEM medium (8.0 × 10^5 cells) was pipetted onto the surface of the TW apical chamber and 500 μl complete DMEM medium was added to the basolateral side. In order to avoid nonattached cells, after incubation at 37°C for 5–6 h, the apical medium was removed and replaced with fresh complete DMEM medium. […] On day 5, the medium was changed, then Cf-peptide was added to the CALU-1-containing apical side at 10 and 20 µM concentrations, and the system was incubated for 45 min or 3 h (37°C, 5% CO2). The TW chamber was removed after incubation. EBC-1 cells were studied using flow cytometry (BD LSR II).
EBC-1 cells were treated without the presence of the TW inserts as controls (on day 4 prior to treatment, EBC-1 cells (10^5 cells/well in complete DMEM). […]
Figure 7 The penetration ability of Cf-peptides was determined on Transwell bronchial interface, and the penetration rates were quantified by flow cytometry. […] The confluence of CALU-1 monolayer was monitored with CellTracker Green, and after development of stable green fluorescence, cells were imaged in situ. […]

EBC-1 spheroids = experiment: Penetration into EBC-1 3D spheroids (confocal line scan); assay type: cell-based, human; conditions: 10 µM, 3 h, confocal z-stack to 55 µm, line scan n = 16
Procedure: In this study, we have employed a modified method based on ([55]). Briefly, micromolds for casting 3D Petri dishes (MicroTissues, Sigma, 5 × 7 array) were filled with molten agarose (2% (w/v) in PBS). The gelled agarose dishes were equilibrated with serum-free DMEM (2 ml/2 h, 37°C). Cells were seeded after incubation (1.8 × 10^4 cell/µL in DMEM CM). Prior to seeding process, nuclei were stained with Hoechst 33342 solution (0.2 µM) for 30 min ( Figure 2 ). Based on our previous work ([55]), the nuclear stain could not successfully penetrate into deeper layers of the spheroids (mostly localized at the spheroid surface), and towards the center of the spheroids the Hoechst 33342 signal was gradually decreasing. Stained cells were incubated in 2 ml DMEM CM for 48 h while cell-to-cell adhesion drives the aggregation and formation of spheroids. To monitor the condition of the spheroids, bright-field images were captured (Olympus CX41). After 48 h of incubation, spheroids were washed two times with fresh ICM DMEM and were treated with the Cf-Dhvar4 peptide (10 µM/2 ml ICM DMEM for 3 h). […] Line scan analysis was performed by NIH ImageJ software, two spheroids were analyzed (eight scans per spheroid, n = 16 in total). […]
Next, we assessed the penetration ability of Cf-Dhvar4 peptide on spheroids formed from EBC-1 cells. […]

MonoMac-6 cells = assay type: cell-based, human; conditions: 10 µM Cf-peptide, 2 h, LysoTracker, ImageJ JACoP on merged images
Procedure: Cellular uptake and localization were visualized by confocal laser scanning microscopy. MonoMac-6 cells were seeded 1 day prior to treatment into coverslips (thickness 1, Assistent, Karl Hecht GmbH, Sondheim vor der Rhön, Germany) containing a 24-well plate (Sarstedt, Nümbrecht, Germany) for microscopy studies at a density of 7.5 × 10^4 cells/well, in 1 ml complete DMEM medium. The following day, cells were treated with Cf-peptide at a concentration of 10 µM (diluted in serum-free DMEM medium) for 2 h. Lysosomes were stained by LysoTracker Deep Red (Invitrogen, Waltham, MA, USA) for 30 min, and nuclei were stained by Hoechst 33342 solution (Thermo Scientific, USA). After each step, cells were washed three times with serum-free medium, then cells were fixed by 4% paraformaldehyde for 15 min and mounted to microscopy slides with Mowiol 4-88 (Sigma, Budapest, Hungary). Imaging was performed by a Zeiss LSM-710 system (Carl Zeiss microscopy GmbH, Oberkochen, Germany) with a ×40/1.4 Plan-Apochromat oil immersion objective using lasers with the parameters: Cf peptides λex = 488 nm, λem = 541 nm, nuclei λex = 405 nm, λem = 467 nm (Hoechst 33342), lysosomes λex = 633 nm, λem = 720 nm (LysoTrackerTM Deep Red) or λex = 577 nm, λem = 590 nm (LysoTrackerTM Red DND-99) were used. Zeiss ZEN lite software (Carl Zeiss Microscopy GmbH, Jena, Germany) was used for image processing.
Parallel with flow cytometry measurements, confocal laser scanning microscopy images were also captured in order to assess qualitative information on intracellular localization. LysoTrackerTM Deep Red was used for lysosome and Hoechst 33342 for nuclear staining to distinguish subcellular localization of the Cf-peptide. […] Colocalization of Cf-peptide and LysoTracker may be subjectively identified by the cooccurrence, the simple spatial overlap which combined the contribution of both signals (green and red) when the images of each signal are superimposed (merged, see Supplementary Figure S3 ).
microscopy at the 10 µM Cf-peptide concentration (based on flow cytometry profile), and MonoMac6 cells were incubated for 2 hrs.
the visible differences among localization profiles of the Cf-peptides, we applied greyscale analysis of
the images and the evaluation was carried out on a representative peptide set.
were studied and the treatment, the staining and fixation process were carefully optimized to assess
Laser intensity values were identical in case of all Cf-peptides. ZEN 3.0 blue lite software
was used for image processing and grey scale values were extracted using NIH ImageJ software’s Plot

EBC-1 cells = assay type: cell-based, human; conditions: 10 µM, 3 hrs, fixed, 30 profiles
Procedure: In addition to the internalization experiments, the surface morphology of INH-peptide-treated and fixed EBC-1 cells was also studied with atomic force microscopy (AFM) ( Supplementary Information 1.3 ). High-resolution imaging of the cell surfaces was performed with a Flex-Axiom AFM system (Nanosurf, Liestal, Switzerland).The representative images and surface roughness of the native and treated cells are shown in Supplementary Figure S2 .
1.3 Membrane integrity evaluation by atomic force microscopy (AFM) […]
High resolution imaging of the surfaces were performed with a Flex-Axiom AFM system (Nanosurf, Liestal, Switzerland) operating in dynamic mode utilizing soft-tapping cantilevers (Tap150-G, BudgetSensors) with nominal force constant of 5 N/m. The recorded images were evaluated with the Gwyddion software. […]
Two cut-off frequencies were chosen with real-space wavelengths of 1 μm and 200 nm. […] Figure 2D,E,F. Scale dependent surface roughness of the cells was determined according to Antonio et al. Mean Rq values are somewhat higher in the peptide and conjugate treated cells, but […]
Supplementary Figure 2. […] The apex area of the cells was selected for imaging with a scan area of 5 μm × 5 μm (512 × 512 pixel resolution), where the cellular curvature has the smallest distortion effect on the recorded height profiles. […]
1.4. […] To quantify […]

## NNC(=O)c1ccncc1 [INH, isoniazid]
Mtb H37Rv
  MIC: 0.1 to 0.5 µM (≈ 0.0137 to 0.0686 µg/mL)
[1]; 5, 10, 50 µM, treated two times for 3 + 3 days, SDS lysis, CFU on Löwenstein-Jensen after 4 weeks
  intracellular killing efficacy (CFU): not effective
[2]; INH-Dhvar4 30 mg/kg bw s.c.
  Mtb CFU in spleen: moderate decrease
[2]
  Mtb CFU in lung: Clearance of Mtb from the lung

## CC[C@H](C)[C@H](NC(=O)[C@H](CCCCN)NC(=O)[C@@H](NC(=O)[C@H](CCC(N)=O)NC(=O)[C@@H](N)CCCNC(=N)N)[C@@H](C)CC)C(=O)N[C@@H](Cc1c[nH]c2ccccc12)C(=O)N[C@@H](Cc1ccccc1)C(=O)N[C@@H](CCC(N)=O)C(=O)N[C@@H](CC(N)=O)C(=O)N[C@@H](CCCNC(=N)N)C(=O)N[C@@H](CCCNC(=N)N)C(=O)N[C@@H](CCSC)C(=O)N[C@@H](CCCCN)C(=O)N[C@@H](Cc1c[nH]c2ccccc12)C(=O)N[C@@H](CCCCN)C(=O)N[C@@H](CCCCN)C(N)=O [Penetratin, reference compound]
[3]
  Rt (retention time): 6.1
[4]
  penetration through CALU-1 monolayer and internalization into EBC-1 cells: higher internalization rates

## Cf-RAGLQFPVGRVHRLLRK [Cf-Dhvar4, 5(6)-carboxyfluorescein-labeled Dhvar4]
EBC-1 spheroids
  penetration ability on EBC-1 spheroids: fair penetration ability
MonoMac-6 cells
  Pearson's coefficient of colocalization with lysosomal staining: 0.249

## KRLFKKLLFSLRKY-NH2 [Dhvar4, reference compound]
[3]
  Rt (retention time): 6.9
EBC-1 cells
  membrane integrity (AFM surface roughness Rq): membrane integrity maintained
[4]
  penetration through CALU-1 monolayer and internalization into EBC-1 cells: higher internalization rates
[1]
  intracellular killing efficacy (CFU): not effective

Source: article PMC8632718, “Novel Assay Platform to Evaluate Intracellular Killing of Mycobacterium tuberculosis: In Vitro and In Vivo Validation” (Frontiers in Immunology, 2021)
